These results are taken from BindingDB's records for doi:10.1016/j.bmc.2012.08.006 (Chungnam National University, 2012).

This assay is described as follows: Inhibition of IL-5 in mouse Y16 cells after 48 hrs by WST1 assay. (Formazan colour is commonly taken as a measure of viable cells.)
For orientation: IC50 means the concentration that inhibits the measured activity by half. Higher therefore signals weaker potency. Turning to `CCCN(CCO)Cc1coc2cccc(OCC3CCCCC3)c2c1=O`, the midpoint of inhibition, the IC50, lay at 15.4 µM. In other words, the double-digit micromolar range.
The value for `CCN(CCO)Cc1coc2cccc(OCC3CCCCC3)c2c1=O` was 19.5 µM; that for `COc1ccc(CN(CCO)Cc2coc3cccc(OCC4CCCCC4)c3c2=O)cc1` was 9 µM; that for `O=c1c(CN(CCO)Cc2ccc(O)cc2)coc2cccc(OCC3CCCCC3)c12` was 9.1 µM.
In turn, `Cc1ccc(CN(CCO)Cc2coc3cccc(OCC4CCCCC4)c3c2=O)cc1` showed a concentration for half-maximal inhibition (IC50) of 9.4 µM.
For `O=c1c(CN(CCO)Cc2ccccc2)coc2cccc(OCC3CCCCC3)c12`, it took 16.1 µM to reach half-maximal inhibition (IC50).
`O=c1c(CN(CCO)CC2CCCCC2)coc2cccc(OCC3CCCCC3)c12` came in with an IC50 of 12.4 µM.
In the case of `O=c1c(CN(CCO)Cc2ccncc2)coc2cccc(OCC3CCCCC3)c12` it was 14.2 µM; in that of `O=c1c(CN(CCO)Cc2ccc(Cl)cc2)coc2cccc(OCC3CCCCC3)c12`, 10.3 µM.
For `CC(C)N(CCO)Cc1coc2cccc(OCC3CCCCC3)c2c1=O`, the IC50 was determined as 10.2 µM.
In the case of `CCCCN(CCO)Cc1coc2cccc(OCC3CCCCC3)c2c1=O` it was 9.2 µM.
Turning to `O=c1c(CN(CCO)c2ccccc2)coc2cccc(OCC3CCCCC3)c12`, the half-inhibitory concentration (IC50) came out at 14.3 µM.
The value for `O=c1c(CN(CCO)C2CCCCC2)coc2cccc(OCC3CCCCC3)c12` was 9 µM.
As for `CN(CCO)Cc1coc2cccc(OCC3CCCCC3)c2c1=O`, it took 30.3 µM to reach half-maximal inhibition (IC50).
